# Assay results taken from ChEMBL document CHEMBL5052821, “Galactokinase inhibitors for the treatment and prevention of associated diseases and disorders” (2019).
# Calls of active or inactive are those of the source. The rule behind the calls is not given here.
# System: HEK293
# Experiment: Cytotoxicity against human HEK293 cells measured after 48 hrs by Cell Titer Glo assay
# Type: toxicity, cell-based
# Details: hek293, 48 h
row,SMILES,Activity
1,Cc1ccc2oc(NC3=NC4(CCCC4)C4=C(CCCC4=O)N3)nc2c1,Non-Toxic
2,O=C1CCCC2=C1C1(CCC1)N=C(Nc1nc3ccccc3o1)N2,Non-Toxic
3,Cn1c(NC2=NC3(CCCC3)C3=C(CCCC3=O)N2)nc2ccccc21,Non-Toxic
4,O=C1CC(c2ccccc2)CC2=C1C1(CCCCC1)N=C(Nc1nc3ccccc3o1)N2 (stereo not given),Non-Toxic
5,O=C1CCCC2=C1C1(CCCC1)N=C(Nc1nc3ccccc3o1)N2,Non-Toxic
6,CC1(C)CC(=O)C2=C(C1)NC(Nc1nc3ccccc3o1)=NC21CCCC1,Non-Toxic
7,O=C1CCC2=C1C1(CCCC1)N=C(Nc1nc3ccccc3o1)N2,Non-Toxic
8,O=C1CCCC2=C1C1(CCCC1)N=C(Nc1nc3cc4ccccc4cc3o1)N2,Non-Toxic
9,Cc1ccc2nc(NC3=NC4(CCCC4)C4=C(CCCC4=O)N3)oc2c1,Non-Toxic
10,O=C1CCCC2=C1C1(CCCC1)N=C(Nc1nc3cc(Cl)ccc3o1)N2,Non-Toxic
11,O=C1CCCC2=C1C1(CCCC1)N=C(Nc1nc3cc(Br)ccc3o1)N2,Non-Toxic

# System: Bacteria
# Experiment: Inhibition of bacterial CDP-ME kinase assessed as ATP depletion up to 57 uM measured by bioluminescent kinase Glo assay
# Details: dose microM <=57
row,SMILES,inhibition
1,CCC1CCC2(C1)N=C(Nc1nc3ccccc3o1)NC1=C2C(=O)CCC1 (stereo not given),inactive
2,O=C1CCCC2=C1C(c1ccc(Cl)cc1)N=C(Nc1nc3ccccc3o1)N2 (stereo not given),inactive
3,O=C1CCCC2=C1C(c1n[nH]cc1Br)N=C(Nc1nc3ccccc3o1)N2 (stereo not given),inactive
4,COc1ccccc1C1N=C(Nc2nc3ccccc3o2)NC2=C1C(=O)CCC2 (stereo not given),inactive
5,CC1(C)CC(=O)C2=C(C1)NC(Nc1nc3ccccc3o1)=NC21CCCCC1,inactive
6,Cc1ccc2oc(NC3=NC4(CCCC4)C4=C(CCCC4=O)N3)nc2c1,inactive
7,O=C1CCCC2=C1C1(CCC1)N=C(Nc1nc3ccccc3o1)N2,inactive
8,Cc1ccsc1C1N=C(Nc2nc3ccccc3o2)NC2=C1C(=O)CCC2 (stereo not given),inactive
9,Cn1c(NC2=NC3(CCCC3)C3=C(CCCC3=O)N2)nc2ccccc21,inactive
10,O=C1CCCC2=C1C(c1ccccc1Br)N=C(Nc1nc3ccccc3o1)N2 (stereo not given),inactive
11,CNC(=O)C1=C(C)NC(Nc2nc3ccccc3o2)=NC1c1nn(C)cc1Cl (stereo not given),inactive
12,CC1=C(C(=O)Nc2ccc(Cl)cc2)C(c2ccccc2Br)N=C(Nc2nc3ccccc3o2)N1 (stereo not given),inactive
13,COc1ccccc1NC(=O)C1=C(C)NC(Nc2nc3ccccc3o2)=NC1c1ccccc1Br (stereo not given),inactive
14,O=C1CCCC2=C1C(c1ccccc1I)N=C(Nc1nc3ccccc3o1)N2 (stereo not given),inactive
15,CC1=C(C(=O)Nc2nc3ccccc3s2)C(c2nn(C)cc2Cl)N=C(Nc2nc3ccccc3o2)N1 (stereo not given),inactive
16,CC1=C(C(=O)n2ccc3ccccc32)C(c2ccccc2Br)N=C(Nc2nc3ccccc3o2)N1 (stereo not given),inactive
17,O=C1CCCC2=C1C1(CCCC1)N=C(Nc1nc3cc(-c4ccccc4)ccc3o1)N2,inactive
18,O=C1CCC2=C1C(c1ccccc1Cl)N=C(Nc1nc3ccccc3o1)N2 (stereo not given),inactive
19,O=C1CCCC2=C1[C@@]1(CCC(c3ccccc3)C1)N=C(Nc1nc3ccccc3o1)N2 (stereo not given in full),inactive
20,CC1=C(C(=O)Nc2nnc(-c3ccccc3)s2)C(c2n[nH]cc2Cl)N=C(Nc2nc3ccccc3o2)N1 (stereo not given),inactive
21,O=C1CCCC2=C1C(c1ccccc1)N=C(Nc1nc3ccccc3o1)N2 (stereo not given),inactive
22,O=C1CCCC2=C1C(c1cccnc1)N=C(Nc1nc3ccccc3o1)N2 (stereo not given),inactive
23,CC1=C(C(=O)Nc2nc3ccccc3s2)C2(CCCC2)N=C(Nc2nc3ccccc3o2)N1,inactive

row,SMILES,inhibition
1,CNC(=O)C1=C(C)NC(Nc2nc3ccccc3o2)=NC12CCCC2,inactive
2,O=C1CC(c2ccccc2)CC2=C1C1(CCCCC1)N=C(Nc1nc3ccccc3o1)N2 (stereo not given),inactive
3,CC1=C(C(=O)N(C)C)C(c2ccccc2Br)N=C(Nc2nc3ccccc3o2)N1 (stereo not given),inactive
4,CC1=C(C(=O)Nc2nncs2)C(c2ccccc2Br)N=C(Nc2nc3ccccc3o2)N1 (stereo not given),inactive
5,O=C1CCCC2=C1C1(CCCC1)N=C(Nc1nc3ccccc3o1)N2,inactive
6,CC1=C(C(=O)NCc2ccccc2)C(c2ccccc2Br)N=C(Nc2nc3ccccc3o2)N1 (stereo not given),inactive
7,O=C1CCCC2=C1C(c1ncccc1Br)N=C(Nc1nc3ccccc3o1)N2 (stereo not given),inactive
8,Cc1ccc(C2N=C(Nc3nc4ccccc4o3)NC3=C2C(=O)CCC3)cc1 (stereo not given),inactive
9,O=C1CCCC2=C1C1(CCOCC1)N=C(Nc1nc3ccccc3o1)N2,inactive
10,O=C1CCCC2=C1C1(CCSCC1)N=C(Nc1nc3ccccc3o1)N2,inactive
11,O=C1CCCC2=C1C(c1n[nH]cc1Cl)NC(Nc1nc3ccccc3o1)=N2 (stereo not given),inactive
12,O=C1CCCC2=C1C(c1cccc(C(F)(F)F)c1)N=C(Nc1nc3ccccc3o1)N2 (stereo not given),inactive
13,Cc1cccc(C2N=C(Nc3nc4ccccc4o3)NC3=C2C(=O)CCC3)c1 (stereo not given),inactive
14,CC1(C)CC(=O)C2=C(C1)NC(Nc1nc3ccccc3o1)=NC21CCCC1,inactive
15,O=C1CCCC2=C1C(c1c(Cl)cccc1Cl)N=C(Nc1nc3ccccc3o1)N2 (stereo not given),inactive
16,CC1=C(C(=O)NC2CC2)C(c2n[nH]cc2Cl)N=C(Nc2nc3ccccc3o2)N1 (stereo not given),inactive
17,Cn1ncc(Cl)c1C1N=C(Nc2nc3ccccc3o2)NC2=C1C(=O)CCC2 (stereo not given),inactive
18,O=C1CCCC2=C1C1(CCCC1)N=C(Nc1nc3ccccc3n1Cc1ccccc1)N2,inactive
19,O=C1CCCC2=C1C(c1ncccc1C(F)(F)F)N=C(Nc1nc3ccccc3o1)N2 (stereo not given),inactive
20,CC1=C(C(=O)NC2CCCCC2)C(c2ccccc2Br)N=C(Nc2nc3ccccc3o2)N1 (stereo not given),inactive
21,CC1=C(C(=O)Nc2nc3ccccc3s2)C(c2n[nH]cc2Cl)N=C(Nc2nc3ccccc3o2)N1 (stereo not given),inactive
22,CC1=C(C(=O)Nc2noc3ccccc23)C(c2nn(C)cc2Cl)N=C(Nc2nc3ccccc3o2)N1 (stereo not given),inactive
23,O=C1CCC2=C1C1(CCCC1)N=C(Nc1nc3ccccc3o1)N2,inactive

row,SMILES,inhibition
1,O=C1CCCC2=C1C1(CCCC1)N=C(Nc1nc3cc4ccccc4cc3o1)N2,inactive
2,O=C1CCCC2=C1C(c1ccccc1C(F)(F)F)N=C(Nc1nc3ccccc3o1)N2 (stereo not given),inactive
3,CC1=C(C(=O)NC2CC2)C(c2nn(C)cc2Cl)N=C(Nc2nc3ccccc3o2)N1 (stereo not given),inactive
4,CC1=C(C(=O)NC2CCCC2)C(c2n[nH]cc2Cl)N=C(Nc2nc3ccccc3o2)N1 (stereo not given),inactive
5,O=C1CCCC2=C1C1(CCS(=O)(=O)C1)N=C(Nc1nc3ccccc3o1)N2 (stereo not given),inactive
6,CC1=C(C(=O)Nc2ccon2)C2(CCCC2)N=C(Nc2nc3ccccc3o2)N1,inactive
7,O=C1CCCC2=C1C(c1ccc(F)cc1)N=C(Nc1nc3ccccc3o1)N2 (stereo not given),inactive
8,COc1ccc(C2N=C(Nc3nc4ccccc4o3)NC3=C2C(=O)CCC3)cc1 (stereo not given),inactive
9,CC1(C)N=C(Nc2nc3ccccc3o2)NC2=C1C(=O)CCC2,inactive
10,Cc1ccc2nc(NC3=NC4(CCCC4)C4=C(CCCC4=O)N3)oc2c1,inactive
11,CC1=C(C(=O)Nc2nncs2)C(c2nn(C)cc2Cl)N=C(Nc2nc3ccccc3o2)N1 (stereo not given),inactive
12,O=C1CCCC2=C1C(c1cnccc1C(F)(F)F)N=C(Nc1nc3ccccc3o1)N2 (stereo not given),inactive
13,CNC(=O)C1=C(C)NC(Nc2nc3ccccc3o2)=NC1c1n[nH]cc1Cl (stereo not given),inactive
14,O=C1CCCC2=C1C(c1cccc(F)c1)N=C(Nc1nc3ccccc3o1)N2 (stereo not given),inactive
15,CC1=C(C(=O)Nc2ccccc2C)C(c2ccccc2Br)N=C(Nc2nc3ccccc3o2)N1 (stereo not given),inactive
16,CC1=C(C(=O)Nc2nncs2)C2(CCCC2)N=C(Nc2nc3ccccc3o2)N1,inactive
17,COc1ccc(NC(=O)C2=C(C)NC(Nc3nc4ccccc4o3)=NC2c2ccccc2Br)cc1 (stereo not given),inactive
18,CC1=C(C(=O)Nc2nc3ccccc3o2)C2(CCCC2)N=C(Nc2nc3ccccc3o2)N1,inactive
19,O=C1CCCC2=C1C1(CCSC1)N=C(Nc1nc3ccccc3o1)N2 (stereo not given),inactive
20,O=C1CCCC2=C1C1(CCCOC1)N=C(Nc1nc3ccccc3o1)N2 (stereo not given),inactive
21,O=C1CCCC2=C1C(c1cccc(Cl)c1)N=C(Nc1nc3ccccc3o1)N2 (stereo not given),inactive
22,O=C1CC(c2ccccc2)CC2=C1C1(CCCC1)N=C(Nc1nc3ccccc3o1)N2 (stereo not given),inactive
23,O=C1CCCC2=C1C(c1ccccc1Cl)N=C(Nc1nc3ccccc3o1)N2 (stereo not given),inactive

row,SMILES,inhibition
1,Cc1ccc(C2N=C(Nc3nc4ccccc4o3)NC3=C2C(=O)CCC3)s1 (stereo not given),inactive
2,CC1=C(C(=O)Nc2ccccc2)C(c2ccccc2Br)N=C(Nc2nc3ccccc3o2)N1 (stereo not given),inactive
3,CC1CCC2(C1)N=C(Nc1nc3ccccc3o1)NC1=C2C(=O)CCC1 (stereo not given),inactive
4,COc1cccc(C2N=C(Nc3nc4ccccc4o3)NC3=C2C(=O)CCC3)c1 (stereo not given),inactive
5,CN(C)c1ccc(C2N=C(Nc3nc4ccccc4o3)NC3=C2C(=O)CCC3)cc1 (stereo not given),inactive
6,O=C1CCCC2=C1C(c1ccncc1)N=C(Nc1nc3ccccc3o1)N2 (stereo not given),inactive
7,CC1=C(C(=O)Nc2ccc(C)cc2)C(c2ccccc2Br)N=C(Nc2nc3ccccc3o2)N1 (stereo not given),inactive
8,CC1=C(C(=O)N(C)c2ccccc2C)C(c2ccccc2Br)N=C(Nc2nc3ccccc3o2)N1 (stereo not given),inactive
9,CC1=C(C(=O)Nc2nccs2)C(c2ccccc2Br)N=C(Nc2nc3ccccc3o2)N1 (stereo not given),inactive
10,O=C1CCCC2=C1C(c1ccncc1Br)N=C(Nc1nc3ccccc3o1)N2 (stereo not given),inactive
11,O=C1CCCC2=C1C(c1ccncc1Cl)N=C(Nc1nc3ccccc3o1)N2 (stereo not given),inactive
12,CC1=C(C(=O)Nc2ccon2)C(c2nn(C)cc2Cl)N=C(Nc2nc3ccccc3o2)N1 (stereo not given),inactive
13,CC1=C(C(=O)Nc2ccon2)C(c2ccccc2Br)N=C(Nc2nc3ccccc3o2)N1 (stereo not given),inactive
14,Cc1cc(C2N=C(Nc3nc4ccccc4o3)NC3=C2C(=O)CCC3)n[nH]1 (stereo not given),inactive
15,O=C1CCCC2=C1C1(CCCC1)N=C(Nc1nc3cc(Cl)ccc3o1)N2,inactive
16,O=C1CCCC2=C1C(c1cccnc1Cl)N=C(Nc1nc3ccccc3o1)N2 (stereo not given),inactive
17,Cn1cc(Br)c(C2N=C(Nc3nc4ccccc4o3)NC3=C2C(=O)CCC3)n1 (stereo not given),inactive
18,O=C1CCCC2=C1C(c1cccnc1Br)N=C(Nc1nc3ccccc3o1)N2 (stereo not given),inactive
19,O=C1CCCC2=C1C1(CCCC1)N=C(Nc1nc3cc(Br)ccc3o1)N2,inactive
20,O=C1CCCC2=C1C(c1ccn[nH]1)N=C(Nc1nc3ccccc3o1)N2 (stereo not given),inactive
